According to US12528794B2, “MAO-B inhibitor DRG-MAOB-1 for use in treatment of neurodegenerative diseases” (BAHCESEHIR UNIVERSITESI, priority 2020, dated 2026):

How the values were obtained:
human MAO-A = biological target: T1, human MAO-A (Homo sapiens, UniProt P21397); assay: MAO inhibitory assay (kynuramine, fluorescence), MAO-A; type: biochemical; details: human recombinant enzyme, kynuramine substrate, 37° C., triplicate
T1 sequence (P21397 1-527): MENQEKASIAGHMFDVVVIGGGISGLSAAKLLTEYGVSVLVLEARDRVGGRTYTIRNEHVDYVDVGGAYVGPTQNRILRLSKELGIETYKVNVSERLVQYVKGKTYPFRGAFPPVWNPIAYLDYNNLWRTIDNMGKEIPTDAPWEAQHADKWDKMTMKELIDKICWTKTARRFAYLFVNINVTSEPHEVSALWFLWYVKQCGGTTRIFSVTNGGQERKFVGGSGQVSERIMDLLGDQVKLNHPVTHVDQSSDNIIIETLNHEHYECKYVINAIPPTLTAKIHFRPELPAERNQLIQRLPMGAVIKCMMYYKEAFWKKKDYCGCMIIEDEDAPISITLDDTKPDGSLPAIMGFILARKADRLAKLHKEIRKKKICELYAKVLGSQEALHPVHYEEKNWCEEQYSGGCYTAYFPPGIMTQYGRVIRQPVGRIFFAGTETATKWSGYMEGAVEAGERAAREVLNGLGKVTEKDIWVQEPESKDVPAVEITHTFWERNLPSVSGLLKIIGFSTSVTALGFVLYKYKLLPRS
Method: (§1) MAO inhibitory activity was assayed using the method of Novaroli et al. with minor modifications. Briefly, 140 μL of 0.1 M potassium phosphate buffer (pH 7.4), 8 μL of 0.75 mM kynuramine, and 2 μL of a dimethyl sulfoxide (DMSO) inhibitor solution (final DMSO concentration of 1% (v/v) and final concentrations of the inhibitors of 0-1 μM), were preincubated at 37° C. for 10 min. Diluted human recombinant enzyme (50 μL) was then added to obtain a final protein concentration of 0.0075 mg/mL (MAO-A) or 0.015 mg/mL (MAO-B) in the assay mixture. The reaction mixture was further incubated at 37° C. and the reaction was stopped after 20 min by the addition of 75 μL of 2 M NaOH. The product generated by MAO, 4-quinolinol, is fluorescent and was measured at Ex 310 nm/Em 400 nm using a microplate reader (Thermo Scientific-Multiskan GO). Each data points of samples were triplicate. The sample solution was replaced with DMSO to provide a negative control. The IC50 values were calculated from a line through two points which sandwiched the point of 50% (IC50) by plotting the remained activity (%) related to control (100%) versus the logarithm of the inhibitor concentration to obtain a sigmoidal dose-response curve

human MAO-B = biological target: T2, human MAO-B (Homo sapiens, UniProt P27338); assay: MAO inhibitory assay (kynuramine, fluorescence), MAO-B; type: biochemical
T2 sequence (P27338 1-520): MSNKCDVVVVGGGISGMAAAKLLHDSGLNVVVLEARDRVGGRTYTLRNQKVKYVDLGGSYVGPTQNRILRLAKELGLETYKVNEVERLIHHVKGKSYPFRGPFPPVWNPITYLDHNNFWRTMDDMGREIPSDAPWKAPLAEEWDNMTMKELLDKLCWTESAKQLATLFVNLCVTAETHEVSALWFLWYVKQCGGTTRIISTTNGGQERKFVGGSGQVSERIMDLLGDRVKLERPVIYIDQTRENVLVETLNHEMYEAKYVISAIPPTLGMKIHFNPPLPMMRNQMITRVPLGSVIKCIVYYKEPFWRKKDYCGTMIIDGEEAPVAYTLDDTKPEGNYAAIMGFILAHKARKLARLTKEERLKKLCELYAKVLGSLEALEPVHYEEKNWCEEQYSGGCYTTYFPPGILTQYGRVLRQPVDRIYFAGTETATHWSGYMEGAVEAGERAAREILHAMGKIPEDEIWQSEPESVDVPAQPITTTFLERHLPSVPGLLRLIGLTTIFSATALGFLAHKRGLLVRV
Method: as §1

With `Cn1nc(C(=O)NCCc2nc3ccccc3[nH]2)c2ccccc21` (racemic) [compound of formula I] the IC50 (human MAO-A) was 54.8 ± 1.9 nM, the “fold more potent binding to MOA-B compared to MOA-A” value (human MAO-B; MAO-B over MAO-A, from IC50 values) was “approximately 13 fold” and the IC50 (human MAO-B; human recombinant enzyme, kynuramine substrate, 37° C., triplicate) was 4.02 ± 0.03 nM.
